Experimental data reported in PubChem BioAssay (NCI).
Values joined by “and” are separate entries in the source; they are usually repeats but may differ in a detail not shown here. Identical values can stand only once.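 Growth conditions: 96-well plates. Treatment: test compound, 48 hours, 5 concentrations. Analysis: linear interpolation between bracketing concentrations; unreached endpoints set to highest concentration. GI50: concentration for 50% inhibition of growth. TGI denotes the concentration required for complete inhibition of growth.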

Assays:
Test in all cases: NCI-60 cell line screen, 48 h
BT-549 breast = tested on: BT-549 breast
KM12 colon = tested on: KM12 colon
MALME-3M melanoma = tested on: MALME-3M melanoma
OVCAR-5 ovarian = tested on: OVCAR-5 ovarian
PC-3 prostate = tested on: PC-3 prostate
SR leukemia = tested on: SR leukemia
TK-10 renal = tested on: TK-10 renal
U251 CNS = tested on: U251 CNS
UACC-62 melanoma = tested on: UACC-62 melanoma
SK-MEL-2 melanoma = tested on: SK-MEL-2 melanoma
MDA-N = tested on: MDA-N

Structure (SMILES)	TGI (BT-549 breast)	TGI (KM12 colon)	TGI (MALME-3M melanoma)	TGI (OVCAR-5 ovarian)	TGI (PC-3 prostate)	TGI (SR leukemia)	TGI (TK-10 renal)	TGI (U251 CNS)	TGI (UACC-62 melanoma)	TGI (SK-MEL-2 melanoma)	TGI (MDA-N)	GI50 (SR leukemia)
CC1=C(C)SC(=C2Sc3nc(O)[nH]c(=O)c3S2)S1	> 100 µM	> 100 µM	50.8 µM	> 100 µM	> 100 µM	79.9 µM	> 100 µM	> 100 µM	59.4 µM	–	–	–
O=CN1CCN(C(=O)c2ccc(Cl)c(Cl)c2)C1=S	33.7 µM	30.3 µM	39.1 µM	32.4 µM	31.9 µM	–	30.1 µM	28 µM	30.4 µM	30.6 µM	–	–
OC1CSc2nc3ccccc3n2C1 (stereo not drawn)	> 100 µM	> 100 µM	> 100 µM	> 100 µM	> 100 µM	> 100 µM	> 100 µM	> 100 µM	> 100 µM	–	> 100 µM	–
CCC1NC(N=Nc2ccc([N+](=O)[O-])cc2)(P(=O)(OC(C)C)OC(C)C)OC1=O (stereo not drawn)	–	> 100 µM	> 100 µM	> 100 µM	–	> 100 µM	> 100 µM	> 100 µM	> 100 µM	> 100 µM	–	–
CCOc1cc2c(c(OCC)c1O)CC[C@@H]1[C@@H]2CC[C@]2(C)[C@@H](O)CC[C@@H]12	–	72.5 µM	66.4 µM	> 100 µM	–	28 µM	> 100 µM	–	27.5 µM	83.7 µM	1.58 µM	–
N#CNC(=NCCc1c[nH]c2ccccc12)Oc1ccccc1	–	> 100 µM	–	> 100 µM	–	> 100 µM	> 100 µM	> 100 µM	> 100 µM	–	–	–
CC1=CC2c3cccc4[nH]cc(c34)CC2N(C)C1 (stereo not drawn)	–	> 100 µM	> 100 µM	> 100 µM	–	–	–	> 100 µM	> 100 µM	> 100 µM	–	–
COC1=C(C)C(=O)c2c(cc3c(c2O)C(C)(CCC=C(C)C)C(C)O3)C1=O (stereo not drawn)	–	> 100 µM	> 100 µM	> 100 µM	–	> 100 µM	> 100 µM	> 100 µM	97 µM	> 60.8 µM	–	–
COc1ccc(NC(=S)c2ccoc2C)cc1CC(=O)OC(C)C	–	> 100 µM	–	> 100 µM	62.3 µM	–	> 100 µM	> 100 µM	> 100 µM	40.6 µM	> 100 µM	–
COc1cc(C2c3cc4c(cc3[C@@H](NCCN3CCOCC3)C3COC(=O)[C@H]23)OCO4)cc(OC)c1O (stereo partly drawn)	–	12.1 µM and > 17.5 µM	11.2 µM and 14.2 µM	–	–	11.1 µM and 1.3 µM	21.7 µM and > 17.5 µM	5.46 µM and 5.53 µM	4.99 µM and 6.06 µM	14.5 µM and 11.3 µM	–	22.7 nM and 62.5 nM
CC(C)NC(=O)OCc1c2c(n(C)c1COC(=O)NC(C)C)-c1ccccc1CC2	–	29 µM	19.2 µM	31.6 µM	–	–	–	22.5 µM	25.5 µM	29.5 µM	–	–
c1ccc2c(c1)OC(N1CCCC1)c1cnc(N3CCOCC3)nc1-2 (stereo not drawn)	72.8 µM	> 100 µM	> 100 µM	79.1 µM	> 100 µM	> 100 µM	> 100 µM	> 100 µM	> 100 µM	–	–	–
COc1ccccc1C1c2cc3c(cc2OC(N2CCOCC2)C1C)OCO3 (stereo not drawn)	–	39.6 µM	–	41.1 µM	71.9 µM	52.9 µM	> 100 µM	–	35.5 µM	37.3 µM	24.8 µM	–
COc1cccc(/C=C2\S/C(=N/Nc3nc(-c4ccc([N+](=O)[O-])cc4)cs3)NC2=O)c1O	20 µM	26.9 µM	42.3 µM	54.7 µM	40.2 µM	74.9 µM	67.6 µM	7.66 µM	–	–	57.5 µM	–
Cc1ccc(C(=O)N/N=C(\N=Nc2ccc(C(=O)O)cc2)c2ccc(N(CCC#N)CCC#N)cc2C)cc1	> 100 µM	> 100 µM	–	> 100 µM	> 100 µM	> 100 µM	> 100 µM	> 100 µM	–	> 100 µM	> 100 µM	–
O=C(O)C1CCCCN1c1ccccc1[N+](=O)[O-] (stereo not drawn)	–	–	> 100 µM	> 100 µM	–	> 100 µM	> 100 µM	> 100 µM	> 100 µM	> 100 µM	–	–
Cn1c(N)nc(-c2ccc(Cl)cc2)c1SSc1c(-c2ccc(Cl)cc2)nc(N)n1C	5.19 µM	3.46 µM	4.57 µM	3.26 µM	3.38 µM	–	3.32 µM	4.19 µM	5.03 µM	32.1 µM	3.34 µM	–
CCCCCCCCCCCCCCCCCCOCC(O)COP(=O)(O)OCC1OC(n2ccc(N)nc2=O)C(O)C1O (stereo not drawn)	–	41 µM	> 100 µM	> 100 µM	20.7 µM	40.4 µM	51.1 µM	30.2 µM	70.2 µM	–	> 100 µM	–
Cc1ccc(Nc2nc3c(=O)n(C)c(=O)n(C)c3nc2Nc2ccc(C)cc2)cc1	–	34.5 µM	28.6 µM	31.2 µM	27.9 µM	> 100 µM	29.9 µM	29.9 µM	25 µM	33.5 µM	24.2 µM	–
CCOC(=O)C(Cl)(NC(=O)OCc1ccccc1)C(F)(F)F (stereo not drawn)	–	> 100 µM	> 100 µM	> 100 µM	> 100 µM	–	> 100 µM	> 100 µM	–	> 100 µM	> 100 µM	–
CC(=O)CC1=C(OC(C)C)C2(OCCO2)C1O (stereo not drawn)	> 100 µM	> 100 µM	> 100 µM	> 100 µM	> 100 µM	–	> 100 µM	> 100 µM	> 100 µM	> 100 µM	> 100 µM	–
O=C(Nc1ccc(Cl)cc1)c1cc(S(=O)(=O)Nc2nnc3c(Cl)cc(C(F)(F)F)cn23)c(S)cc1Cl	> 100 µM	> 100 µM	> 100 µM	> 100 µM	> 100 µM	> 100 µM	> 100 µM	> 100 µM	–	74.6 µM	–	–
Fc1ccc(C(OCCN2CC3CCC(C2)N3CCCc2ccccc2)c2ccc(F)cc2)cc1	24.8 µM	12.2 µM	11.2 µM	23.3 µM	10.4 µM	–	24 µM	16.1 µM	21.3 µM	12 µM	11.8 µM	–
O=C1c2ccccc2N2Oc3ccccc3C12c1ccccc1 (stereo not drawn)	–	–	> 100 µM	–	–	> 100 µM	–	> 100 µM	> 100 µM	–	–	–
